This note sets out measurements from US10752587B2, “Homobispiperidinyl derivatives as liver X receptor beta agonists, compositions and their use” (Merck Sharp & Dohme Corp., priority 2015, dated 2020).

The target of test [1] is T1, glutathione-S-transferase (GST) tagged LXRbeta LBD (ligand binding domain) (Homo sapiens, UniProt P55055).
T1 construct: purchased Invitrogen pv4658.pps
T1 sequence (P55055 222-460 limits assumed): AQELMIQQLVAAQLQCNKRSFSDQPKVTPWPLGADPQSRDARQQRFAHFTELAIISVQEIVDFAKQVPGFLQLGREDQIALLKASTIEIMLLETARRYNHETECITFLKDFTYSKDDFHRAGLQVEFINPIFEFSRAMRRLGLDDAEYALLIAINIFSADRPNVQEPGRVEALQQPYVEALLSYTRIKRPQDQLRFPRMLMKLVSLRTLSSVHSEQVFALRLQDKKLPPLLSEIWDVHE
Kind of test: LanthaScreen TR-FRET Liver X Receptor Coactivator Assay, co-activator recruitment to LXRbeta LBD. The format is biochemical. The following applies: for Emax: efficacy at max dose, in relation to reference dual agonist T0901317, read-out: LXR beta Activity @ max dose (%); for EC50: potency (Inflection Point, IP), co-activator recruitment to LXRbeta LBD, in relation to T0901317, read-out: LXR beta IP. In a few lines:
(§1)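 TR-FRET coactivator recruitment; compound + LBD, then fluorescein-coactivator peptide/Tb-anti-GST Ab mix; RT incubation; IP and Emax vs T0901317.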

Test [2] deals with T2, glutathione-S-transferase (GST) tagged LXRalpha LBD (ligand binding domain) (Homo sapiens, UniProt Q13133).
T2 construct: purchased Invitrogen pv4655
T2 sequence (Q13133 209-447 limits assumed): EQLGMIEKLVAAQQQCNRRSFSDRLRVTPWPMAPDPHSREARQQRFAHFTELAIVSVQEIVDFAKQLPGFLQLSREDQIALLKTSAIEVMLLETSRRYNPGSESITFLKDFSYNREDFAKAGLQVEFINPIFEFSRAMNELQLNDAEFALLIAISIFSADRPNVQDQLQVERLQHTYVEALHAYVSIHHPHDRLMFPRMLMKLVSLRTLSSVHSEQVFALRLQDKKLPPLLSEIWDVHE
Kind of test: LanthaScreen TR-FRET Liver X Receptor Coactivator Assay, co-activator recruitment to LXRalpha LBD. Conditions: for Emax: efficacy at max dose, in relation to reference dual agonist T0901317, read-out: LXR alpha Activity @ max dose (%); for EC50 / LXR alpha IP (nM): potency (Inflection Point, IP), co-activator recruitment to LXRalpha LBD, in relation to T0901317; for EC50: read-out: LXR alpha IP. In kind it is biochemical. In a few lines:
as §1

Molecules are shown by their SMILES.

Take `CNC(=O)c1ccc(N2CCC(OC3CCN(C(=O)C(O)(c4cccc(OC)c4)C(F)(F)F)CC3)CC2)cc1Cl` (centres unmarked) [Example 7-32, 2-chloro-N-methyl-4-[4-({1-[3,3,3-trifluoro-2-hydroxy-2-(3-methoxyphenyl)propanoyl]piperidin-4-yl}oxy)piperidin-1-yl]benzamide]: in test [1], the Emax turned out to be 92% and the EC50 was found to be 184 nM. In test [2], the Emax came to 18% and the EC50 came to 4240 nM.

On to `CNC(=O)c1ccc(N2CCC(CC3CCN(C(=O)[C@](O)(c4cccc(OC)c4)C(F)(F)F)CC3)CC2)cc1Cl` [Example 7-33, 2-chloro-N-methyl-4-[4-({1-[(2R)-3,3,3-trifluoro-2-hydroxy-2-(3-methoxyphenyl)propanoyl]piperidin-4-yl}methyl)piperidin-1-yl]benzamide], for which, in test [1], the Emax was 60% and the EC50 is 10 nM. For the same molecule, in test [2], the Emax worked out at 12% and the “LXR alpha IP (nM)” value is given as “NO IP”.

Take `CNC(=O)c1ccc(N2CCC(CC3CCN(C(=O)C4(c5ccccc5F)CCCC4)CC3)CC2)cc1Cl` [Example 7-34, 2-chloro-4-{4-[(1-{[1-(2-fluorophenyl)cyclopentyl]carbonyl}piperidin-4-yl)methyl]piperidin-1-yl}-N-methylbenzamide]: in test [1], the Emax turned out to be 82% and the EC50 worked out at 169 nM. Further, in test [2], the Emax came out at 19% and the EC50 is 2190 nM.

For `CNC(=O)c1ccc(N2CCC(CC3CCN(C(=O)C(O)(c4cccc(C(F)(F)F)c4)C(F)(F)F)CC3)CC2)cc1Cl` (centres unmarked) [Example 7-35, 2-chloro-N-methyl-4-{4-[(1-{3,3,3-trifluoro-2-hydroxy-2-[3-(trifluoromethyl)phenyl]propanoyl}piperidin-4-yl)methyl]piperidin-1-yl}benzamide], in test [1], the Emax came out at 78% and the EC50 was found to be 96 nM. Moreover, in test [2], the Emax came to 25% and the EC50 was found to be 784 nM.

With `CNC(=O)c1ccc(N2CCC(CC3CCN(C(=O)C(O)(c4cccc(C)c4)C(F)(F)F)CC3)CC2)cc1Cl` (centres unmarked) [Example 7-36, 2-chloro-N-methyl-4-[4-({1-[3,3,3-trifluoro-2-hydroxy-2-(3-methylphenyl)propan-oyl]piperidin-4-yl}methyl)piperidin-1-yl]benzamide], in test [1], the Emax came to 65% and the EC50 was 28 nM. Also, in test [2], the Emax came out at 19% and the EC50 turned out to be 762 nM.

With `CNC(=O)c1ccc(N2CCC(CC3CCN(C(=O)C(O)(c4cccc(Cl)c4)C(F)(F)F)CC3)CC2)cc1Cl` (centres unmarked) [Example 7-37, 2-chloro-4-[4-({1-[2-(3-chlorophenyl)-3,3,3-trifluoro-2-hydroxypropanoyl]piperidin-4-yl}methyl)piperidin-1-yl]-N-methylbenzamide], in test [1], the Emax came out at 90% and the EC50 was determined as 16 nM. In addition, in test [2], the Emax came to 27% and the EC50 amounted to 340 nM.

As for `CNC(=O)c1ccc(N2CCC(CC3CN(C(=O)[C@](O)(c4cccc(OC)c4)C(F)(F)F)C3)CC2)cc1Cl` [Example 7-38, 2-chloro-N-methyl-4-[4-({1-[(2R)-3,3,3-trifluoro-2-hydroxy-2-(3-methoxyphenyl)propanoyl]azetidin-3-yl}methyl)piperidin-1-yl]benzamide], in test [1], the Emax is 67% and the EC50 turned out to be 136 nM. For the same molecule, in test [2], the Emax came out at 1% and the “LXR alpha IP (nM)” value is on record as “NO IP”.

On to `CCOc1cccc([C@@](O)(C(=O)N2CC(CC3CCN(c4ccc(C(=O)NC)c(Cl)c4)CC3)C2)C(F)(F)F)c1` [Example 7-39, 2-chloro-4-[4-({1-[(2R)-2-(3-ethoxyphenyl)-3,3,3-trifluoro-2-hydroxypropanoyl]azetidin-3-yl}methyl)piperidin-1-yl]-N-methylbenzamide], for which, in test [1], the Emax is 59% and the EC50 was 91 nM. For the same molecule, in test [2], the Emax worked out at 0% and the “LXR alpha IP (nM)” value was “NO IP”.

Take `CN(C)C(=O)c1ccc(N2CCC(CC3CN(C(=O)[C@](O)(c4cc(F)cc(Cl)c4)C(F)(F)F)C3)CC2)nc1Cl` [Example 7-40, 2-chloro-6-[4-({1-[(2R)-2-(3-chloro-5-fluorophenyl)-3,3,3-trifluoro-2-hydroxypropanoyl]azetidin-3-yl}methyl)piperidin-1-yl]-N,N-dimethylpyridine-3-carboxamide]: in test [1], the Emax amounted to 113% and the EC50 was determined as 4 nM. In test [2], the Emax was 49% and the EC50 was found to be 291 nM.

Consider `CN(C)C(=O)c1ccc(N2CCC(CC3CN(C(=O)[C@](O)(c4cccc(Cl)c4)C(F)(F)F)C3)CC2)nc1Cl` [Example 7-41, 2-chloro-6-[4-({1-[(2R)-2-(3-chlorophenyl)-3,3,3-trifluoro-2-hydroxypropanoyl]azetidin-3-yl}methyl)piperidin-1-yl]-N,N-dimethylpyridine-3-carboxamide], for which, in test [1], the Emax was determined as 110% and the EC50 was 11 nM. Moreover, in test [2], the Emax worked out at 35% and the EC50 stood at 525 nM.

Take `CC(C)Oc1cccc([C@@](O)(C(=O)N2CC(CC3CCN(c4ccc(C(=O)N(C)C)c(Cl)n4)CC3)C2)C(F)(F)F)c1` [Example 7-42, 2-chloro-N,N-dimethyl-6-{4-[(1-{(2R)-3,3,3-trifluoro-2-hydroxy-2-[3-(1-methylethoxy)phenyl]propanoyl}azetidin-3-yl)methyl]piperidin-1-yl}pyridine-3-carboxamide]: in test [1], the Emax came out at 83% and the EC50 is 30 nM. Moreover, in test [2], the Emax worked out at 9% and the “LXR alpha IP (nM)” value is “NO IP”.

On to `CCc1cccc([C@@](O)(C(=O)N2CC(CC3CCN(c4ccc(C(=O)N(C)C)c(Cl)n4)CC3)C2)C(F)(F)F)c1` [Example 7-43, 2-chloro-6-[4-({1-[(2R)-2-(3-ethylphenyl)-3,3,3-trifluoro-2-hydroxypropanoyl]azetidin-3-yl}methyl)piperidin-1-yl]-N,N-dimethylpyridine-3-carboxamide], for which, in test [1], the Emax amounted to 80% and the EC50 was 33 nM. Moreover, in test [2], the Emax was found to be 16% and the “LXR alpha IP (nM)” value is listed as “NO IP”.

Take `CCOc1cccc([C@@](O)(C(=O)N2CC(CC3CCN(c4ccc(C(=O)N(C)C)c(Cl)n4)CC3)C2)C(F)(F)F)c1` [Example 7-44, 2-chloro-6-[4-({1-[(2R)-2-(3-ethoxyphenyl)-3,3,3-trifluoro-2-hydroxypropanoyl]azetidin-3-yl}methyl)piperidin-1-yl]-N,N-dimethylpyridine-3-carboxamide]: in test [1], the Emax was 75% and the EC50 amounted to 34 nM. In test [2], the Emax came to 8% and the “LXR alpha IP (nM)” value was “NO IP”.

Consider `COc1cccc([C@@](O)(C(=O)N2CC(CC3CCN(c4ccc(C(=O)N(C)C)c(Cl)n4)CC3)C2)C(F)(F)F)c1` [Example 7-45, 2-chloro-N,N-dimethyl-6-[4-({1-[(2R)-3,3,3-trifluoro-2-hydroxy-2-(3-methoxyphenyl)propanoyl]azetidin-3-yl}methyl)piperidin-1-yl]pyridine-3-carboxamide], for which, in test [1], the Emax was 92% and the EC50 is 22 nM. For the same molecule, in test [2], the Emax was determined as 14% and the “LXR alpha IP (nM)” value is “NO IP”.
